Measurements reported in US10800815B2, “Kv1.3 potassium channel antagonists” (cgtx-Peptide Development GmbH, priority 2014, dated 2020).

What was measured:
[1] = test system: white blood cells in peripheral blood; assay: Haematology (WBC, neutrophil granulocytes, lymphocytes) in AIA rats; type: in vivo, rat
Method: For the blood withdrawal the animals were narcotized briefly, the tail was disinfected and the tail vein was punctured with a cannula, 50 μl of blood were withdrawn with a heparin coated pipette and mixed with 5 μl of a stabilising agent (CPD) and 1 μl heparin (1.5 U/μl diluted 1:4 in 0.9% NaCl).
White Blood Cells (WBC) were counted with a Coulter Counter in the automatic mode.
Blood samples were taken regularly for monitoring of hematological parameters. Haematological parameters were assessed in all animals weekly before induction, at day of induction and 10 days after induction (days −21, −14, −7, 0 and 10). […] Absolute counts of white blood cells (WBC), neutrophil granulocytes and lymphocytes were analyzed among others, the last two also stated in percentage of total WBC. EDTA whole blood of seven individuals from both vehicle and cgtx-544 peptide therapy group was measured with Sysmex XT-2000i.
For screening the state of health of all individuals, complete haemograms were used again. EDTA whole blood of seven individuals from both MTX high-dose and low-dose therapy groups were measured with Sysmex XT-2000i.V weekly before induction, at day of induction and 4 and 7 days after induction (day −21, −14, −7, 0, 4 and 7; MTX low-dose therapy group additionally on day −3, when i.v. application started).

[2] = test system: antigen induced arthritis (AIA); assay: Antigen induced arthritis (AIA) rat model, knee joint swelling; type: in vivo; conditions: for reduction of knee swelling relative to the vehicle control group: 24 h after arthritis induction; for difference of absolute increase of knee swelling (induced minus un-induced knee): one day after arthritis induction
Kv1.3 [3] = biological target: T1, Kv1.3 (Homo sapiens, UniProt P22001); assay: Kv1.3 block with prolonged incubation times; type: cell-based; conditions: incubation about 20 min, after folding and purification
T1 sequence (P22001 whole entry): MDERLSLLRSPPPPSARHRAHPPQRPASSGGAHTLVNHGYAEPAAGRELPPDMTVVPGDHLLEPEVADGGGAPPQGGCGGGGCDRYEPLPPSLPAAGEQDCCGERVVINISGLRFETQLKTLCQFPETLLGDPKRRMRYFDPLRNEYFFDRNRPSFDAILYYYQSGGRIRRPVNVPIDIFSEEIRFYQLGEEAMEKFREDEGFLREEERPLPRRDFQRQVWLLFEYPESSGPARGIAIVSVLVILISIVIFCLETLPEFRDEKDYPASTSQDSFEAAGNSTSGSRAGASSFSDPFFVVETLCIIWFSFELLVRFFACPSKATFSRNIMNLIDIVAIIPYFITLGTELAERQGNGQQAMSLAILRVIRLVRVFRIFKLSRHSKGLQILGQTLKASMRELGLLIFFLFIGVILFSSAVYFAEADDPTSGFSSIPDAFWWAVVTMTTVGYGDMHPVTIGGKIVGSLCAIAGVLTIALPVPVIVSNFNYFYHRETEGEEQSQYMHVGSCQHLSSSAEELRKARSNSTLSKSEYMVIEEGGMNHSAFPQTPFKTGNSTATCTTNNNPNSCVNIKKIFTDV

in vivo = type: in vivo; conditions: rat
Method: FIG. 34 Decrease of cgtx-544(Sing) in the serum of treated rats after i.v. injection. The concentration of unbound circulating cgtx-544(Sing) was calculated on the basis of a standard curve. Standard error of the mean is depicted in the error bars (n=6).
Rats received i.v. injections of cgtx-544(Sing) (750 μg/kg BW). Blood was withdrawn at time points 0, 1, 10 and 60 minutes. Subsequently, serum was prepared from blood samples. The cgtx-544 content in these samples was analyzed electrophysiologically by measuring the blocking effect on Kv1.3 channels expressed in CHO cells. […] In order to study the amount of unbound cgtx-544(Sing) in the rat, the amount of cgtx-544(Sing) present in the circulating blood at the time points referred above was calculated through a calibration curve. This calibration curve was obtained by adding known quantities of cgtx-544(Sing) to blood serum and subsequent electrophysiological measurements on Kv1.3 channels. The block of Kv1.3 currents by these spiked samples was similar to that obtained with cgtx-544(Sing) in the absence of serum (data not shown).

Kv1.2 = biological target: T2, Kv1.2 (Homo sapiens, UniProt P16389); assay: Patchliner electrophysiology on Kv1.2 in stably transfected CHO cells (Example 8); type: cell-based
T2 construct: expressed in transfected cells; host or cells: CHO cells, stably transfected
T2 sequence (P16389 whole entry): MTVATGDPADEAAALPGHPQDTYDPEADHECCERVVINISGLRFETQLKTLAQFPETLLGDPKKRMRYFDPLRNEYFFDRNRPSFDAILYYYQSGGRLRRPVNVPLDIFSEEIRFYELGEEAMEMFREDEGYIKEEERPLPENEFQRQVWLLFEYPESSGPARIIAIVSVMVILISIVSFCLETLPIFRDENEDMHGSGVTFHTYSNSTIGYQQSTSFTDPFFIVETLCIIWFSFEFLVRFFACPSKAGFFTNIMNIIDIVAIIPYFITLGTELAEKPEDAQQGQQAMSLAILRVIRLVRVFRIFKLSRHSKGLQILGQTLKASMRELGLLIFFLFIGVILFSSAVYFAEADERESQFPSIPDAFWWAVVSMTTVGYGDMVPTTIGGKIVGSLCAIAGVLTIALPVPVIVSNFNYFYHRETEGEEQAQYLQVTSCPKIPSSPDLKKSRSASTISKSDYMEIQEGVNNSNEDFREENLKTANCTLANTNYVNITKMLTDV
Method: (§1) Ion channels were expressed via Baculovirus (Kv1.1-, Kv1.3- and Kv1.5-constructs) infected Sf21 cells or stably transfected CHO cells (Kv1.2) as described in Examples 1, 2, and 4. Electrophysiological analysis was performed on the automated patch clamp device “Patchliner” (Nanion Technologies, Munich, Germany). The Patchliner is based on a planary patch clamp method borosilicate glass chip (NPC-16) instead of a glass pipettes. The Patchliner is able to record four cells at the same time. All channel recordings were made in the whole cell mode. Data recordings were performed with the PatchMaster software (HEKA Electronics, Lambrecht/Pfalz, Germany). Visualization of experimental results was realized with IGOR software (Wavemetrics, USA). Average data are presented as mean±standard error of the mean (SEM).
(§2) Test compounds were used as concentrated stock solutions (mostly 1.5 μg/μl). Stock solutions were diluted in buffer to the required final concentrations.

Kv1.1 = biological target: T3, Kv1.1 (Homo sapiens, UniProt Q09470); assay: Patchliner electrophysiology on Kv1.1 in Baculovirus infected Sf21 cells (Example 8); type: cell-based
T3 construct: expressed in transfected cells; host or cells: Sf21 insect cells, baculovirus infection
T3 sequence (Q09470 whole entry): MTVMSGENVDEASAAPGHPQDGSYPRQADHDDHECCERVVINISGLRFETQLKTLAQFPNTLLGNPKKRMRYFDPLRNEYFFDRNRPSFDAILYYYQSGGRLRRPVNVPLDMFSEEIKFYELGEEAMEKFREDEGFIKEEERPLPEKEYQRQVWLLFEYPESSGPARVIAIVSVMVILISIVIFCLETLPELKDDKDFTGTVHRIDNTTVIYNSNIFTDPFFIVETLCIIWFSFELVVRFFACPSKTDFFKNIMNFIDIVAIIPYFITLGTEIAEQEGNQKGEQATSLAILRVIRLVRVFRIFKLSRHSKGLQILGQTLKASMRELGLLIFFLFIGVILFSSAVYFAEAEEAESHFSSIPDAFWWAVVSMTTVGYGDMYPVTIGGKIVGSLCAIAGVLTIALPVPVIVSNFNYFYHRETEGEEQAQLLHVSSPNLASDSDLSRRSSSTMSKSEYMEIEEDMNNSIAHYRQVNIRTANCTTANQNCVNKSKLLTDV
Method: as §1, §2

[4] = Solubility and stability in 0.9% NaCl solution; type: physicochemical
Method: This peptide solution is being folded by oxidation (formation of disulfide bonds). The folding method is based on bond formation in phosphate buffer at pH 8.3 in the presence of atmospheric oxygen. […] Thus, after the folding reaction the active peptide (retention time 12.77 min) was purified from the cgtx-544 mixture of folded and partially folded peptides by preparative HPLC. After this purification step the active peptide—referred to as cgtx-544(Sing)—usually has an estimated purity of more than 95%.

Kv1.5 = biological target: T4, Kv1.5 (Homo sapiens, UniProt P22460); assay: Patchliner electrophysiology on Kv1.5 in Baculovirus infected Sf21 cells (Example 8); type: cell-based; conditions: 10 μM solution
T4 construct: expressed in transfected cells; host or cells: Sf21 insect cells, baculovirus infection
T4 sequence (P22460 whole entry): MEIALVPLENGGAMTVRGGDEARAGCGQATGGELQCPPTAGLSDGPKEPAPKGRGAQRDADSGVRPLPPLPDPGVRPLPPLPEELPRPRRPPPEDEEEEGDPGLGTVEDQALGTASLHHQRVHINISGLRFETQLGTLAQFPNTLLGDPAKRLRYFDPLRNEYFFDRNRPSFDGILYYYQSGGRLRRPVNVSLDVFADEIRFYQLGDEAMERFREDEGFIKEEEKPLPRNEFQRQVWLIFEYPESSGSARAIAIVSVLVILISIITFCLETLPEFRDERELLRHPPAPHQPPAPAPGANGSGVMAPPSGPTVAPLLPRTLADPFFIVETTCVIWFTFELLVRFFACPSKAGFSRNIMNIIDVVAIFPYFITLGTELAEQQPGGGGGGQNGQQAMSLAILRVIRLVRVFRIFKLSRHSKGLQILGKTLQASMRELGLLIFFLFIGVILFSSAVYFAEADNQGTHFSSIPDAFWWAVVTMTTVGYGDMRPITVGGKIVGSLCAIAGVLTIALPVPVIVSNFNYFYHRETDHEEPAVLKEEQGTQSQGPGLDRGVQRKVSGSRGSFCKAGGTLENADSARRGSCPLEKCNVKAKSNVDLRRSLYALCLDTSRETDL

Kv1.3 [5] = biological target: T1, Kv1.3; assay: Decay of cgtx-544(Sing) in human blood serum at 37° C., blocking activity on Kv1.3 (Example 9); type: in vitro ADME
Method: FIG. 33 Decay of cgtx-544(Sing) in human serum at 37° C. A known amount of cgtx-544(Sing) was added to human blood serum from 3 blood donors and incubated at 37° C. for a period of 57 days. The blocking activity of the peptide was measured on Kv1.3 channels over this period. The peptide remains stable for 16 h, and it can still be detected after 45 days. At 57 days the blocking effect is no longer visible. Decay is depicted as the reduction of concentration of cgtx-544 (Sing) as determined by: C(t)=IC50 (t0)/IC50(t).C0. The decay is fitted by a simple decay curve: C (t)=C0.2(−t/t1/2), where C0 is the initial concentration of peptide in solution, t0 is the 0 min incubation at 37° C. point, and t1/2 is the half-life.
Further to the experiments described in Example 3, the stability of the cgtx-544 peptide was tested in blood serum samples under in vitro conditions. Thus, the stability of cgtx-544(Sing) in human blood serum was determined by the addition of a known quantity of cgtx-544(Sing) to human blood serum and a subsequent incubation at 37° C. The blocking activity of ctx-544(Sing) was measured on Kv1.3 channels over a period of 57 days. cgtx-544(Sing) is extremely stable in human blood serum. Its activity remains constant for at least 16 hours, and decays slowly until no more peptide blocking effect is detectable after 57 days.

Kv1.3 [6] = biological target: T1, Kv1.3; assay: Patchliner electrophysiology of cgtx-544(Sing) on Kv1.3 in Baculovirus infected Sf21 cells (Example 8); type: cell-based
Method: as §1, §2
After chemical synthesis (see Example 7) the peptide was folded by oxidation with atmospheric oxygen and the correctly folded (biologically active) peptide fraction was purified by preparative HPLC. This purified cgtx-544 peptide was designated cgtx-544(Sing) for singular peak.

[7] = high-dose 1 mg/kg 1× weekly s.c., day 7
[8] = high-dose 1 mg/kg 1× weekly s.c., day −7
[9] = high-dose 1 mg/kg 1× weekly s.c., seven days after induction
[10] = low-dose 100 μg/kg 1× daily i.v., day 7
[11] = high-dose 1 mg/kg 1× weekly s.c.
[12] = low-dose 100 μg/kg 1× daily i.v.

Which WBC count [1, 7] does the source give for `CN(Cc1cnc2nc(N)nc(N)c2n1)c1ccc(C(=O)N[C@@H](CCC(=O)O)C(=O)O)cc1` [MTX, Methotrexate] here?
Its WBC count is 14.68±2.15 ×10^3/μl.

And the absolute lymphocyte count [1, 7]?
The absolute lymphocyte count was 11.38±1.15 ×10^3/μl.

What about the lymphocyte percentage [1, 7] of the same compound?
Its lymphocyte percentage is 78.16±7.20 % of WBC.

And the WBC count [1, 8]?
Its WBC count is 20.79±5.96 ×10^3/μl.

What about the absolute lymphocyte count [1, 8] of the same compound?
The absolute lymphocyte count was 11.68±2.8 ×10^3/μl.

What about the “absolute neutrophil granulocyte count” value [1, 8] of the same compound?
The value was 7.54±3.19 ×10^3/μl.

And the lymphocyte percentage [1, 8]?
Its lymphocyte percentage is 57.01±6.45 % of WBC.

And the relative neutrophils [1, 8]?
The relative neutrophils was 35.46±7.08 % of WBC.

And the “absolute neutrophil granulocyte count” value [1, 9]?
Its value is 1.94±1.1 ×10^3/μl.

And the relative neutrophils [1, 9]?
The relative neutrophils was 12.63±6.1 % of WBC.

What about the WBC count [1, 10] of the same compound?
Its WBC count is 6.63±1.37 ×10^3/μl.

And the absolute lymphocyte count [1, 10]?
The absolute lymphocyte count was 6.14±1.11 ×10^3/μl.

And the “absolute neutrophil granulocyte count” value [1, 10]?
The value was 0.33±0.36 ×10^3/μl.

What about the “decrease of WBC counts compared to the beginning of the experiment” value [1, 10] of the same compound?
The value was roughly 50%.

What about the lymphocyte percentage [1, 10] of the same compound?
The lymphocyte percentage was 93.13±4.66 % of WBC.

What about the relative neutrophils [1, 10] of the same compound?
Its relative neutrophils is 4.41±4.63 % of WBC.

What about the “effect in the haemogram compared to the vehicle control group” value ([1]; low-dose treated individuals, seven days after arthritis induction) of the same compound?
The value was “reduction of WBC count, neutrophil granulocyte count and lymphocyte count”.

And the “relative difference of knee swelling (normalized)” value [2, 11]?
The value was 0.39±0.16.

And the “reduction of knee swelling relative to the vehicle control group” value [2, 11]?
Its value is 15%.

What about the “difference of absolute increase of knee swelling (induced minus un-induced knee)” value [2, 11] of the same compound?
The value was 3.17±1.26 mm.

And the “relative difference of knee swelling (normalized)” value [2, 12]?
The value was 0.43±0.11.

And the “reduction of knee swelling relative to the vehicle control group” value [2, 12]?
Its value is 7%.

What about the “difference of absolute increase of knee swelling (induced minus un-induced knee)” value [2, 12] of the same compound?
Its value is 3.45±0.87 mm.

With `CC[C@H](C)[C@H](NC(=O)[C@@H](N)[C@@H](C)O)C(=O)N[C@H](C(=O)N[C@@H](CC(N)=O)C(=O)N[C@H](C(=O)N[C@@H](CCCCN)C(=O)N[C@H]1CSSC[C@@H]2NC(=O)[C@H](CCCCN)NC(=O)CNC(=O)[C@H](Cc3ccc(O)cc3)NC(=O)[C@@H]3CCCN3C(=O)[C@@H]3CSSC[C@@H](C(=O)O)NC(=O)[C@H](CCCNC(=N)N)NC(=O)[C@H](CC(N)=O)NC(=O)[C@@H]4CSSC[C@H](NC(=O)[C@@H]5CCCN5C(=O)[C@@H]5CCCN5C(=O)[C@H](CC(C)C)NC(=O)[C@H](CSSC[C@H](NC(=O)[C@H](CCCCN)NC(=O)[C@H](CCCNC(=N)N)NC(=O)[C@H](CC(N)=O)NC(=O)[C@H](CCSC)NC2=O)C(=O)N[C@@H](CCCCN)C(=O)N4)NC(=O)[C@H](CCC(N)=O)NC(=O)[C@H](CCCCN)NC(=O)[C@@H]2CCCN2C(=O)[C@H](CO)NC(=O)[C@H]([C@@H](C)O)NC1=O)C(=O)N[C@@H](CCCCN)C(=O)N[C@@H](C)C(=O)N[C@@H](CCC(N)=O)C(=O)N[C@@H]([C@@H](C)O)C(=O)NCC(=O)N3)C(C)C)[C@@H](C)CC` [cgtx-544(Sing)] as the compound, how does the IC50 (Kv1.3 [3]) read?
Its IC50 is roughly 0.0009 µM.

And the half-life (in vivo; in vivo, iv, 750 ug/kg, 750 μg/kg BW)?
The half-life was roughly 26 min.

What about the “blocking activity of serum sample relative to the 1 minute sample” value (in vivo; 750 μg/kg BW i.v., 60 minutes) of the same compound?
The value was 10%.

And the “approximate concentration in the circulating blood” value (in vivo; i.v., 750 μg/kg BW)?
Its value is roughly 62 nM.

What about the IC50 (Kv1.2) of the same compound?
The IC50 was 2.5 µM.

What about the “effect on Kv1.2 currents” value (Kv1.2; 100 nM solution, stably transfected CHO cells) of the same compound?
Its value is “did not alter”.

And the “effect on Kv1.2 currents” value (Kv1.2; concentrations >1 μM)?
The value was “only slightly reduced currents”.

What about the IC50 (Kv1.1) of the same compound?
Its IC50 is roughly 6 µM.

What about the solubility ([4]; 0.9% NaCl solution) of the same compound?
The solubility was “highly soluble”.

And the stability in solution ([4]; 0.9% NaCl solution at RT and 4° C.)?
Its stability in solution is “up to several weeks”.

What about the “reduction of Kv1.5 currents” value (Kv1.5) of the same compound?
The value was “did not induce a significant reduction”.

What about the “time after which the peptide can still be detected” value (Kv1.3 [5]; human blood serum, 37° C.) of the same compound?
The value was 45 days.

And the “time at which blocking effect is no longer visible” value (Kv1.3 [5]; human blood serum, 37° C.)?
Its value is 57 days.

And the “period for which 50% activity was retained” value (Kv1.3 [5]; human serum at 37° C.)?
Its value is 5 days.

And the IC50 (Kv1.3 [6])?
The IC50 was 0.0069 µM.
